Patent US11932594B1, “8-((2-hydroxy-5-methylphenyl)diazenyl)naphthalene-1,3-disulfonic acid as an antioxidant compound” (KING FAISAL UNIVERSITY, priority 2023, dated 2024)

Assay: DPPH (2,2-diphenyl-1-picrylhydrazyl) in vitro antioxidant test
Format: biochemical
Conditions: 517 nm; for Inhibition (radical scavenging inhibition): 0.2 mL DPPH (0.75 mM) in ethanol, 30 min incubation in the dark
Procedure: The antioxidant properties of the 8-((2-hydroxy-5-methylphenyl)diazenyl)naphthalene-1,3-disulfonic acid were studied by adding 0.2 mL DPPH (0.75 mM)) to compound 8-((2-hydroxy-5-methylphenyl)diazenyl)naphthalene-1,3-disulfonic acid (III) (304) in ethanol. After 30 min of incubation in the dark, the absorbance was read against a blank at 517 nm. Ascorbic acid (vitamin C) was used as standard antioxidants (positive control). A blank sample was prepared by 0.2 ml of DPPH in 3 ml ethanol. A negative control sample was run using ethanol instead of the sample. The radical scavenging inhibition was calculated using the following equation: […]

| Structure (SMILES) | Inhibition (radical scavenging inhibition) | antioxidant potential compared to vitamin C (DPPH in vitro test, vitamin C as positive control) |
| --- | --- | --- |
| Cc1ccc(O)c(/N=N/c2cccc3cc(S(=O)(=O)O)cc(S(=O)(=O)O)c23)c1 [Product III, 8-((2-hydroxy-5-methylphenyl)diazenyl)naphthalene-1,3-disulfonic acid] | 54% | high potential as an antioxidant compared to vitamin C |
| O=C1O[C@H]([C@@H](O)CO)C(O)=C1O [vit c, Ascorbic acid, reference compound] | 74% | – |
